How the values were obtained:
[1] = Solubility; assay type: physicochemical; settings: powder introduced into physiological saline
Source text: The simple mixture is not preferable for a preparation method of the antioxidant complex according to the inventive concept.

[2] = tested on: Human red blood cells; experiment: CAP-e bioassay (cellular antioxidant protection assay of red blood cells); assay type: cell-based; settings: AAPH-induced oxidative damage, FIGS. 3-5
Protocol: Cellular antioxidant protection (CAP-e) assay of red blood cells was used to evaluate the capacity of antioxidant complexes to protect cells from oxidative stress after the antioxidant complexes enter the cells.
Human red blood cells were treated for 20 minutes using the antioxidant complex serially diluted in physiological saline. During this incubation period, the antioxidant complexes that may pass through a cell membrane may enter the cells. After exposure of the red blood cells to the antioxidant complex which was tested twice for each dose of the antioxidant complex, the red blood cells were washed twice with PBS to remove the antioxidant complex that was not absorbed by the cells.
The red blood cells were loaded with an indicator dye DCF-DA that becomes fluorescent when oxidized, and then a peroxyl free radical generator AAPH was added thereto to induce oxidative damage to the cells. A relative fluorescence intensity of each cell culture was measured at 488 nanometers using a Tecan Spectrafluor plate reader (Tecan, Männedorf, Switzerland). A reference for oxidation at the cellular level was defined based on a low fluorescence intensity of untreated control cells (cells treated with PBS but not treated with a test product or AAPH). A positive control for cellular oxidative damage was defined as red blood cells exposed to AAPH alone under the absence of the antioxidant complex. […]

In the case of `O=C1c2c(O)cc(O)cc2O[C@H](c2ccc(O)c(O)c2)[C@H]1O` [dihydroquercetin powder, dihydroquercetin], the “solubility in physiological saline” value [1] is reported as “almost completely insoluble” and the “intracellular antioxidant capacity / cell protective capacity in CAP-e analysis” value [2] is reported as “did not exhibit the intracellular antioxidant capacity”.
